Literature values, collected in patent US12201712B2, “Method for dyeing keratinous material, comprising the use of an organosilicon compound, a phosphoric acid ester and a dyeing compound” (Henkel AG & Co. KGaA, priority 2020, dated 2025).

Row | Compound | solubility in water (25° C.) | further results
1 | O=C(O)C1=NN(c2ccc(S(=O)(=O)O)cc2)C(=O)C1N=Nc1ccc(S(=O)(=O)O)cc1 (stereo not shown) [Acid Yellow 23, 4,5-dihydro-5-oxo-1-(4-sulfophenyl)-4-((4-sulfophenyl)azo)-1H-pyrazole-3-carboxylic acid] |  | solubility in water (in words) (at 25° C.): readily soluble in water
2 | O=[N+]([O-])c1cc([N+](=O)[O-])c2ccc(S(=O)(=O)O)cc2c1O [Acid Yellow 9, 8-hydroxy-5,7-dinitro-2-naphthalenesulfonic acid] | above 40 g/L | 
3 | O=S(=O)(O)c1ccc(N=Nc2c(O)ccc3ccccc23)cc1 [Acid Orange 7, 4-[(2-hydroxy-1-naphthyl)azo]benzene sulphonate] | more than 7 g/L | 
4 | CCN(Cc1cccc(S(=O)(=O)O)c1)c1ccc(C(=C2C=CC(=[N+](CC)Cc3cccc(S(=O)(=O)O)c3)C=C2)c2ccccc2S(=O)(=O)[O-])cc1 [Acid Blue 9] |  | water solubility (25° C.): greater than 20 wt. %
